Measured values taken from PubChem BioAssay AID330 (DTP/NCI, 2004).
Values joined by “and” are separate entries in the source; they are usually repeats but may differ in a detail not shown here. Identical values can stand only once. Toxic doses and inconclusive results are not listed. The calls were made as follows: active = survival T/C of 150% or more; inactive = T/C below 125% in these data.

Tested on: P388 leukemia ip, CD2F1 mice, survival T/C
Assay: NCI In Vivo Anticancer Drug Screen. Data for tumor model P388 Leukemia (intraperitoneal) in CD2F1 (CDF1) mice
Settings: endpoint: median survival time, higher = longer survival
Procedure, shortened: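 Mice carrying the transplanted tumor received test compound or vehicle. Survival was recorded in each group, and the value is the treated-group measurement divided by that of the vehicle-treated control group.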

[1] = dose: 50.0 mg/kg/injection, schedule: Q01DX005 (ip), vehicle: Klucel (hydroxypropylcellulose) (HPC)
[2] = dose: 100.0 mg/kg/injection, schedule: Q01DX005 (ip), vehicle: Klucel (hydroxypropylcellulose) (HPC)
[3] = dose: 200.0 mg/kg/injection, schedule: Q01DX005 (ip), vehicle: Klucel (hydroxypropylcellulose) (HPC)
[4] = dose: 50.0 mg/kg/injection, schedule: Q01DX005 (ip), vehicle: saline with Tween-80
[5] = dose: 100.0 mg/kg/injection, schedule: Q01DX005 (ip), vehicle: saline with Tween-80
[6] = dose: 200.0 mg/kg/injection, schedule: Q01DX005 (ip), vehicle: saline with Tween-80
[7] = dose: 25.0 mg/kg/injection, schedule: Q01DX005 (ip), vehicle: Klucel (hydroxypropylcellulose) (HPC)
[8] = dose: 6.25 mg/kg/injection, schedule: Q01DX005 (ip), vehicle: saline with Tween-80
[9] = dose: 12.5 mg/kg/injection, schedule: Q01DX005 (ip), vehicle: saline with Tween-80
[10] = dose: 50.0 mg/kg/injection, schedule: Q01DX009 (ip), vehicle: Klucel (hydroxypropylcellulose) (HPC)
[11] = dose: 100.0 mg/kg/injection, schedule: Q01DX009 (ip), vehicle: Klucel (hydroxypropylcellulose) (HPC)
[12] = dose: 50.0 mg/kg/injection, schedule: Q01DX009 (ip), vehicle: saline with Tween-80
[13] = dose: 100.0 mg/kg/injection, schedule: Q01DX009 (ip), vehicle: saline with Tween-80
[14] = dose: 200.0 mg/kg/injection, schedule: Q01DX009 (ip), vehicle: saline with Tween-80
[15] = dose: 60.0 mg/kg/injection, schedule: Q01DX005 (ip), vehicle: saline with Tween-80
[16] = dose: 120.0 mg/kg/injection, schedule: Q01DX005 (ip), vehicle: saline with Tween-80
[17] = dose: 240.0 mg/kg/injection, schedule: Q01DX005 (ip), vehicle: saline with Tween-80

Measured: T/C

CCc1cc2c(=O)[nH]c(-c3cccnc3)nc2s1
inactive: [1] 106 % of control | [2] 100 % of control | [3] 88 % of control

COc1c(C=O)c2c(c(C=O)c1OC)OCO2
inactive: [4] 100 % of control | [5] 104 % of control | [6] 99 % of control

O=C1c2ccccc2C(=O)N1/N=[N+](\[O-])N1Cc2ccccc2C1
inactive: [7] 97 % of control | [1] 101 % of control | [2] 99 % of control | [3] 99 % of control

c1ccc2c3c(c4c(c2c1)CN(C1CCCCC1)CO4)OCN(C1CCCCC1)C3
inactive: [8] 106 % of control | [9] 107 % of control and 112 % of control | [4] 116 % of control

CCCCCCCCCCCCCCCCCC[N+]1(CCC(C)C)CCSCC1
inactive: dose: 100.0 mg/kg/injection, schedule: Q01DX001 (ip), vehicle: saline with Tween-80 88 % of control | dose: 200.0 mg/kg/injection, schedule: Q01DX001 (ip), vehicle: saline with Tween-80 97 % of control

CNC(=O)OCCC(OC(=O)NC)C1CCC2C3CC=C4CC(O)CCC4(C)C3CCC12C (configuration not stated)
inactive: [1] 100 % of control | [2] 102 % of control | [3] 97 % of control

O=C1c2ccccc2CCCC12OC2c1ccncc1 (configuration not stated)
inactive: [10] 90 % of control | [11] 96 % of control | dose: 200.0 mg/kg/injection, schedule: Q01DX009 (ip), vehicle: Klucel (hydroxypropylcellulose) (HPC) 90 % of control

COc1ccc(CC2c3cc4c(cc3CCN2C)OCO4)c(C=O)c1OC (configuration not stated)
inactive: dose: 12.5 mg/kg/injection, schedule: Q01DX001 (ip), vehicle: saline + alcohol 93 % of control | dose: 25.0 mg/kg/injection, schedule: Q01DX001 (ip), vehicle: saline + alcohol 97 % of control | dose: 50.0 mg/kg/injection, schedule: Q01DX001 (ip), vehicle: saline + alcohol 99 % of control

Cc1ccc2c(c1)C(=O)C(CN1CCN(C)CC1)CO2 (configuration not stated)
inactive: dose: 50.0 mg/kg/injection, schedule: Q01DX009 (ip), vehicle: saline 106 % of control | dose: 100.0 mg/kg/injection, schedule: Q01DX009 (ip), vehicle: saline 109 % of control | dose: 200.0 mg/kg/injection, schedule: Q01DX009 (ip), vehicle: saline 99 % of control

CN(Cc1nc2ccccc2[nH]1)N=O
inactive: dose: 100.0 mg/kg/injection, schedule: Q01DX001 (ip), vehicle: Klucel (hydroxypropylcellulose) (HPC) 97 % of control | dose: 200.0 mg/kg/injection, schedule: Q01DX001 (ip), vehicle: Klucel (hydroxypropylcellulose) (HPC) 107 % of control | dose: 400.0 mg/kg/injection, schedule: Q01DX001 (ip), vehicle: Klucel (hydroxypropylcellulose) (HPC) 102 % of control

COC(=O)C(Cc1ccccc1C#N)(OC)OC
inactive: [4] 98 % of control | [5] 101 % of control | [6] 98 % of control

O=NNc1ccnc(-c2cc(NN=O)ccn2)c1
inactive: dose: 3.12 mg/kg/injection, schedule: Q01DX009 (ip), vehicle: water 114 % of control | dose: 6.25 mg/kg/injection, schedule: Q01DX009 (ip), vehicle: water 120 % of control and 122 % of control | dose: 100.0 mg/kg/injection, schedule: Q01DX009 (ip), vehicle: water 87 % of control

CC(=O)O.CC(=O)O.[Co+2].[NH-]C(CCC(N)=O)C(=O)O.[NH-]C(CCC(N)=O)C(=O)O (configuration not stated)
inactive: [12] 98 % of control

C1=CCC2COCC2C1 (configuration not stated)
inactive: [12] 98 % of control | [13] 102 % of control | [14] 100 % of control

Nc1nc2c(-c3ccc([N+](=O)[O-])cc3)nnn2c2cccc(Cl)c12
inactive: [15] 98 % of control | [16] 99 % of control | [17] 97 % of control

C=C1CC2(CC3C(CC2C)C3(C)C)OC1=O (configuration not stated)
inactive: dose: 100.0 mg/kg/injection, schedule: Q01DX001 (ip), vehicle: saline 101 % of control | dose: 200.0 mg/kg/injection, schedule: Q01DX001 (ip), vehicle: saline 101 % of control | dose: 400.0 mg/kg/injection, schedule: Q01DX001 (ip), vehicle: saline 104 % of control

Cc1nc2[nH]ncc2c(=O)n1-c1ccccc1Cl
inactive: [1] 101 % of control | [2] 101 % of control | [3] 99 % of control

ClCC(OCc1ccccc1)OCc1ccccc1
inactive: dose: 12.5 mg/kg/injection, schedule: Q01DX009 (ip), vehicle: other 114 % of control | dose: 25.0 mg/kg/injection, schedule: Q01DX009 (ip), vehicle: other 100 % of control | dose: 50.0 mg/kg/injection, schedule: Q01DX009 (ip), vehicle: other 100 % of control | dose: 100.0 mg/kg/injection, schedule: Q01DX009 (ip), vehicle: other 111 % of control | dose: 200.0 mg/kg/injection, schedule: Q01DX009 (ip), vehicle: other 119 % of control

O=C1[N-]C(=S)c2cccn21.O=C1[N-]C(=S)c2cccn21.[Pt+2]
inactive: [8] 104 % of control | [9] 107 % of control | dose: 25.0 mg/kg/injection, schedule: Q01DX005 (ip), vehicle: saline with Tween-80 105 % of control | [4] 105 % of control

COC(=O)C1(C)OS(=O)(=O)c2ccccc21 (configuration not stated)
inactive: [12] 101 % of control | [13] 101 % of control | [14] 104 % of control

O=C1CN(c2ccccc2)C(=O)C1C(=O)Nc1ccc(Cl)c(Cl)c1 (configuration not stated)
inactive: dose: 30.0 mg/kg/injection, schedule: Q01DX005 (ip), vehicle: saline with Tween-80 117 % of control | [15] 121 % of control and 123 % of control | [17] 90 % of control

COC(=O)c1c(C)oc2ccccc2c1=O
inactive: [1] 101 % of control | [2] 103 % of control | [3] 103 % of control

NC(CCP(=O)(O)O)C(=O)O (configuration not stated)
inactive: dose: 50.0 mg/kg/injection, schedule: Q01DX005 (ip), vehicle: saline 107 % of control | dose: 100.0 mg/kg/injection, schedule: Q01DX005 (ip), vehicle: saline 97 % of control | dose: 100.0 mg/kg/injection, schedule: Q04DX002 (ip), vehicle: saline with Tween-80 100 % of control | dose: 200.0 mg/kg/injection, schedule: Q01DX005 (ip), vehicle: saline 92 % of control | dose: 200.0 mg/kg/injection, schedule: Q04DX002 (ip), vehicle: saline with Tween-80 87 % of control | dose: 400.0 mg/kg/injection, schedule: Q04DX002 (ip), vehicle: saline with Tween-80 89 % of control

CCN=C(NCC)Nc1ccc(NC(=O)Nc2ccc(NC(=O)Nc3ccc(NC(=NCC)NCC)cc3)cc2)cc1
inactive: dose: 6.25 mg/kg/injection, schedule: Q01DX005 (ip), vehicle: Klucel (hydroxypropylcellulose) (HPC) 107 % of control | dose: 12.5 mg/kg/injection, schedule: Q01DX005 (ip), vehicle: Klucel (hydroxypropylcellulose) (HPC) 117 % of control | [7] 121 % of control and 123 % of control | [1] 117 % of control | [3] 90 % of control

CNC(=O)NC1OC(CO)C(O)C1O (configuration not stated)
inactive: dose: 100.0 mg/kg/injection, schedule: Q01DX001 (ip), vehicle: water 97 % of control | dose: 200.0 mg/kg/injection, schedule: Q01DX001 (ip), vehicle: water 103 % of control | dose: 400.0 mg/kg/injection, schedule: Q01DX001 (ip), vehicle: water 104 % of control

N#CC1C(=O)NC(=S)NC1c1ccc(Cl)cc1 (configuration not stated)
inactive: [10] 94 % of control | [11] 101 % of control

Cc1nc(Nc2ccc(F)cc2)c2c(-c3ccccc3)c[nH]c2n1
inactive: [1] 90 % of control | [2] 88 % of control

Cc1cc(O)c(C=Nc2ccccc2C)c(=O)o1
inactive: [4] 102 % of control | [5] 103 % of control | [6] 105 % of control

Cc1ccc(SC(=O)N2CCN(C(=O)Sc3ccc(C)cc3)CC2)cc1
inactive: [10] 93 % of control | [11] 89 % of control

CC1(C)C(=O)N2C(=O)CC(=O)N2C1=O
inactive: [16] 97 % of control | [17] 93 % of control

O=C(NN1C(=O)C=C(O)/C1=C\c1ccccc1)c1ccccc1
inactive: [7] 99 % of control and 104 % of control | [1] 101 % of control and 104 % of control and 111 % of control | [2] 103 % of control and 105 % of control (2×) | [3] 100 % of control and 105 % of control and 121 % of control

CN=C(N)N/N=C(\C)c1ccc2c(c1)Cc1ccccc1-2
inactive: dose: 25.0 mg/kg/injection, schedule: Q04DX002 (ip), vehicle: saline with Tween-80 122 % of control
